According to PubChem BioAssay (NCI):
Values joined by “and” are separate entries in the source; they are usually repeats but may differ in a detail not shown here. Identical values can stand only once.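 Step 1: Grow cells in 96-well plates. Step 2: Expose to compound for 48 hours at 5 concentrations. Step 3: Interpolate endpoints linearly; if unreached, use highest concentration. GI50 is the concentration that inhibits growth by half. TGI: total growth inhibition.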

Assays:
Experiment in all cases: NCI tumour cell line growth inhibition, 48 h
[1] = system: DMS 273 small cell lung
[2] = system: KM20L2 colon
[3] = system: M19-MEL melanoma
[4] = system: RXF-631 renal
[5] = system: SNB-78 CNS
[6] = system: XF 498 CNS
[7] = system: BT-549 breast
[8] = system: MDA-N
[9] = system: P388/ADR leukemia
[10] = system: SN12K1 renal

SMILES	TGI [1]	TGI [2]	TGI [3]	TGI [4] [µM]	TGI [5]	TGI [6] [µM]	TGI [7] [µM]	GI50 [3] [µM]	GI50 [8] [µM]	TGI [8] [µM]	TGI [9] [µM]	GI50 [10] [µM]	TGI [10]	GI50 [5] [µM]	GI50 [6] [µM]
Cn1c2cccc3nnc4cccc(c4c32)n1C	> 100 µM	> 100 µM	> 100 µM	> 100	> 100 µM	> 100	–	–	–	–	–	–	–	–	–
COC(=O)C1=CC2OC13CC1CCC3(C2=O)C1(C)C (centres undefined)	24.6 µM	27.1 µM	24.5 µM	28	36.5 µM	13.4	–	–	–	–	–	–	–	–	–
Nc1ccn([C@@H]2C=C(CO)[C@@H](O)[C@H]2O)c(=O)n1	218 µM and 62.5 µM	500 µM and > 625 µM	244 µM and > 625 µM	–	156 µM and > 625 µM	–	113	0.275	0.05	500	2.19	0.0625	83.8 µM and 160 µM	63.6	< 0.0625
O=C1c2ccccc2C(=O)c2nc(-c3ccccc3)c(-c3ccccc3)nc21	> 100 µM	> 100 µM	2.02 µM	> 100	> 100 µM	> 100	–	–	–	–	–	–	–	–	–
Cc1ccc(C2=NO[C@@H]3C(=O)N(c4ccc(Cc5ccc(N6C(=O)[C@H]7C(c8ccc(C)cc8)=NO[C@H]7C6=O)cc5)cc4)C(=O)[C@H]23)cc1	> 100 µM	> 100 µM	> 100 µM	> 100	> 100 µM	> 100	–	–	–	–	–	–	–	–	–
O=C(CC1(O)C(=O)Nc2c(Cl)cc(Cl)cc21)c1ccc2ccccc2c1 (centres undefined)	15.2 µM	11.4 µM	16.3 µM	20.6	36.5 µM	25.2	–	–	–	–	–	–	–	–	–
Cc1cc(C)n(-c2c(O)ccc(O)c2-n2nc(C)cc2C)n1	> 100 µM	> 100 µM	> 100 µM	> 100	> 100 µM	> 100	–	–	–	–	–	–	–	–	–
